In PubChem BioAssay (NCI):
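Dose response: 5 concentrations. Exposure: 48 h. Format: 96-well plates. Endpoint: linear interpolation; highest concentration if not reached. GI50 = concentration required for 50% inhibition of growth. The concentration for full growth arrest is given as TGI.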

Key:
Test in all cases: inhibition of tumour cell growth, NCI panel, 48 h
[1] = tested on: HT29 colon
[2] = tested on: SK-OV-3 ovarian
[3] = tested on: KM12 colon
[4] = tested on: SNB-19 CNS
[5] = tested on: UACC-257 melanoma
[6] = tested on: NCI-H460 lung
[7] = tested on: HCC-2998 colon
[8] = tested on: RXF 393 renal
[9] = tested on: MDA-N
[10] = tested on: MDA-MB-435

Compound	TGI [1] [µM]	TGI [2] [µM]	TGI [3] [µM]	TGI [4] [µM]	TGI [5] [µM]	TGI [6] [µM]	TGI [7] [µM]	TGI [8] [µM]	TGI [9] [µM]	TGI [10] [µM]	GI50 [1] [µM]	GI50 [10] [µM]	GI50 [2] [µM]	GI50 [3] [µM]	GI50 [4] [µM]	GI50 [5] [µM]	GI50 [6] [µM]	GI50 [7] [µM]	GI50 [8] [µM]
Cc1nc2c(n1Cc1ccc(Cl)cc1)C(=O)c1ccccc1C2=O	> 75	> 75	> 75	> 75	> 75	> 75	> 75	> 75											
C/C(=N\N=C(N)N)c1c(C(=O)OCCCCCCOC(=O)c2nc3sccn3c2/C(C)=N/N=C(N)N)nc2sccn12	> 100		> 100	> 100	> 100	> 100	> 100	> 100	> 100	> 100									
CC1=NN(c2nc(N)nc(/C(C#N)=C/c3ccncc3)n2)C(C)(C)C1	> 100	> 100	> 100	> 100	> 100	> 100	> 100	> 100		> 100									
O=C1CCSSCCC(=O)Nc2ccccc2N1	> 100	> 100	> 100	> 100	> 100	> 100		> 100		> 100									
NC1=NS(=O)(=O)N=C(N)C1=Cc1ccc([N+](=O)[O-])o1	34	> 100	34.5	> 100	28.9	35.9	45.8	32.8											
CC(=O)N(C(C)=O)n1c(Cc2ccc(Cl)cc2)nn(C(C)=O)c1=O	> 100	> 100	> 100	> 100		> 100	> 100	> 100	> 100	> 100									
COc1ccccc1C1C(C#N)=C(N)OC2=C1C(=O)CCC2 (stereo not drawn)	> 100	> 100	> 100	> 100	> 100	> 100	> 100	> 100		> 100	> 100	> 100	> 100	> 100	> 100	> 100	> 100	> 100	> 100
C=CCc1c(O)c2ccccc2[nH]c1=O	> 100		> 100	> 100	> 100	> 100	> 100		> 100	> 100									
O=C(C[C@@H]1NCCC[C@H]1O)Cn1cnc2cc(Br)c(Cl)cc2c1=O	0.191	0.813	0.101	0.484		> 100	0.352	0.0814	0.0881	0.076									
CCCCN(CCCC)C(=NCc1ccccc1)NC#N	30.1	70.6	83.6	54.2	67.5	26.9	49.7	39.8											
Cc1cccc(NC(=O)CC(=O)N2N=C(N3c4ccccc4Sc4ccccc43)CC2c2ccccc2)c1 (stereo not drawn)	> 100	> 100	> 100	> 100	> 100	> 100	> 100	> 100		> 100									
